Measured values: ChEMBL document CHEMBL1201862, “PubChem BioAssay data set” (2004)
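Protocol summary: plate cells (96-well), add compound at 5 concentrations, incubate 48 h, interpolate endpoints linearly. At the GI50, growth is halved.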 Calls of active or inactive are those of the source. Cut-off read from the data, not from the text of the source: active = GI50 up to about 1.1 µM and inactive = higher.

Tests used:
Test in all cases: inhibition of tumour cell growth, NCI panel, 48 h
MOLT-4 = tested on: MOLT-4
OVCAR-5 = tested on: OVCAR-5
HT-29 = tested on: HT-29
SW-620 = tested on: SW-620
SN12C = tested on: SN12C
SNB-75 = tested on: SNB-75
LOX IMVI = tested on: LOX IMVI
MDA-MB-435 = tested on: MDA-MB-435
NCI-H460 = tested on: NCI-H460
NCI-H23 = tested on: NCI-H23
Malme-3M = tested on: Malme-3M
TK-10 = tested on: TK-10
SF-268 = tested on: SF-268
PC-3 = tested on: PC-3
COLO 205 = tested on: COLO 205
K562 = tested on: K562
RXF 393 = tested on: RXF 393
DU-145 = tested on: DU-145
MDA-MB-231 = tested on: MDA-MB-231
RPMI-8226 = tested on: RPMI-8226

SMILES | GI50 (MOLT-4) | GI50 (OVCAR-5) | GI50 (HT-29) | GI50 (SW-620) | GI50 (SN12C) | GI50 (SNB-75) | GI50 (LOX IMVI) | GI50 (MDA-MB-435) | GI50 (NCI-H460) | GI50 (NCI-H23) | GI50 (Malme-3M) | GI50 (TK-10) | GI50 (SF-268) | GI50 (PC-3) | GI50 (COLO 205) | GI50 (K562) | GI50 (RXF 393) | GI50 (DU-145) | GI50 (MDA-MB-231) | GI50 (RPMI-8226)
COc1ccc(CCc2cc(OC)c(OC)c(OC)c2)cc1 | 0.0331 µM (active) | 0.456 µM (active) | 0.0235 µM (active) | 0.0171 µM (active) | 0.114 µM (active) | 0.0395 µM (active) | 0.0372 µM (active) | < 0.01 µM (active) | 0.0277 µM (active) | 0.0743 µM (active) | 0.271 µM (active) | 2.64 µM (inactive) | 0.423 µM (active) | 0.043 µM (active) | 0.0191 µM (active) | 0.012 µM (active) | 0.0205 µM (active) | 0.0935 µM (active) | 0.296 µM (active) | 0.0309 µM (active)
CC(C)(C)OC(=O)NCCCCC(NC(=O)OCc1ccccc1)C(N)=O (stereo not given) | > 100 µM (inactive) | > 100 µM (inactive) | > 100 µM (inactive) | > 100 µM (inactive) | > 100 µM (inactive) | > 100 µM (inactive) | > 100 µM (inactive) | > 100 µM (inactive) | > 100 µM (inactive) | > 100 µM (inactive) | > 100 µM (inactive) | > 100 µM (inactive) | > 100 µM (inactive) | > 100 µM (inactive) | > 100 µM (inactive) | > 100 µM (inactive) | > 100 µM (inactive) | > 100 µM (inactive) | > 100 µM (inactive) | > 100 µM (inactive)
COC(=O)c1ccccc1C1CN=NC12Cc1c(ccc3c1CCC3)C2=O (stereo not given) | 30.5 µM (inactive) | 84.3 µM (inactive) | 43.5 µM (inactive) | 65.3 µM (inactive) | 95.3 µM (inactive) | 51.8 µM (inactive) | 23.8 µM (inactive) | 23.9 µM (inactive) | > 100 µM (inactive) | 66.2 µM (inactive) | > 100 µM (inactive) | > 100 µM (inactive) | > 100 µM (inactive) | 43.8 µM (inactive) | 47.8 µM (inactive) | 39.1 µM (inactive) | 48.6 µM (inactive) | > 100 µM (inactive) | 67.8 µM (inactive) | 28.8 µM (inactive)
CC(=O)/C(=C/NC(=S)Nc1ccccc1)C(=O)Nc1ccccc1C | > 100 µM (inactive) | > 100 µM (inactive) | 77.8 µM (inactive) | > 100 µM (inactive) | > 100 µM (inactive) | 49.9 µM (inactive) | > 100 µM (inactive) | > 100 µM (inactive) | > 100 µM (inactive) | > 100 µM (inactive) | > 100 µM (inactive) | > 100 µM (inactive) | 91 µM (inactive) | > 100 µM (inactive) | > 100 µM (inactive) | 96.2 µM (inactive) | > 100 µM (inactive) | > 100 µM (inactive) | 29.4 µM (inactive) | > 100 µM (inactive)
CCOC(=O)c1c(N2CCCC2)[nH]c(=O)c(C(c2ccc(N(C)C)cc2)c2c(O)c(C(=O)OCC)c(N3CCCC3)[nH]c2=O)c1O | > 100 µM (inactive) | > 100 µM (inactive) | > 100 µM (inactive) | > 100 µM (inactive) | > 100 µM (inactive) | 48.5 µM (inactive) | > 100 µM (inactive) | > 100 µM (inactive) | > 100 µM (inactive) | 95.5 µM (inactive) | > 100 µM (inactive) | 94.2 µM (inactive) | > 100 µM (inactive) | > 100 µM (inactive) | > 100 µM (inactive) | > 100 µM (inactive) | > 100 µM (inactive) | > 100 µM (inactive) | 82.2 µM (inactive) | > 100 µM (inactive)
C=C(C)[C@@]1(O)O[C@H]2C[C@@]3(C)OC(=CC3=O)/C(C)=C\[C@@H]3OC(=O)[C@@]1(C)[C@H]32 | 7.8 µM (inactive) | 14 µM (inactive) | 19.5 µM (inactive) | 4.9 µM (inactive) | 15 µM (inactive) | 23.8 µM (inactive) | 6.31 µM (inactive) | 14.7 µM (inactive) | 22.8 µM (inactive) | 15.3 µM (inactive) | 18.5 µM (inactive) | 22.9 µM (inactive) | 23 µM (inactive) | 16.3 µM (inactive) | 16 µM (inactive) | 4.67 µM (inactive) | 11.1 µM (inactive) | 37.7 µM (inactive) | 17 µM (inactive) | 7.94 µM (inactive)
COc1cc(C(=O)c2cocc2C(=O)c2ccc3c(c2)OCO3)cc(OC)c1OC | 0.991 µM (active) | 18.6 µM (inactive) | 0.244 µM (active) | 0.316 µM (active) | 1.49 µM (inactive) | 0.336 µM (active) | 0.483 µM (active) | 0.0916 µM (active) | 0.658 µM (active) | 0.826 µM (active) | 0.312 µM (active) | 3.18 µM (inactive) | 0.802 µM (active) | 0.355 µM (active) | 4.91 µM (inactive) | 0.151 µM (active) | 0.67 µM (active) | 1.17 µM (inactive) | 2.65 µM (inactive) | 0.628 µM (active)
CC1OC(O[C@@H]2OC=C(C=O)[C@@]3(O)CC[C@H](C)[C@@H]23)C(O)C(O)C1O (stereo not given in full) | > 100 µM (inactive) | > 100 µM (inactive) | > 100 µM (inactive) | > 100 µM (inactive) | > 100 µM (inactive) | > 100 µM (inactive) | > 100 µM (inactive) | > 100 µM (inactive) | > 100 µM (inactive) | > 100 µM (inactive) | > 100 µM (inactive) | > 100 µM (inactive) | > 100 µM (inactive) | > 100 µM (inactive) | > 100 µM (inactive) | > 100 µM (inactive) | > 100 µM (inactive) | > 100 µM (inactive) | > 100 µM (inactive) | > 100 µM (inactive)
CCCCCC/C=C1\CCC(CN(C)C)C1=O (stereo not given) | 3.05 µM (inactive) | 16.9 µM (inactive) | 4.81 µM (inactive) | 2.56 µM (inactive) | 3.74 µM (inactive) | 11 µM (inactive) | 1.89 µM (inactive) | 8.04 µM (inactive) | 16.6 µM (inactive) | 8.73 µM (inactive) | 7.23 µM (inactive) | 3.53 µM (inactive) | 5.35 µM (inactive) | 11.5 µM (inactive) | 3.15 µM (inactive) | 2.4 µM (inactive) | 3.51 µM (inactive) | 20.1 µM (inactive) | 6.43 µM (inactive) | 0.641 µM (active)
O=c1[nH]cnc2c(C3OC(CO)C(O)C3O)c[nH]c12 (stereo not given) | > 100 µM (inactive) | > 100 µM (inactive) | > 100 µM (inactive) | > 100 µM (inactive) | > 100 µM (inactive) | > 100 µM (inactive) | > 100 µM (inactive) | > 100 µM (inactive) | > 100 µM (inactive) | > 100 µM (inactive) | > 100 µM (inactive) | > 100 µM (inactive) | > 100 µM (inactive) | > 100 µM (inactive) | > 100 µM (inactive) | > 100 µM (inactive) | > 100 µM (inactive) | > 100 µM (inactive) | > 100 µM (inactive) | > 100 µM (inactive)
CC1CCCC(C(O)CC2CC(=O)NC(=O)C2)C1O (stereo not given) | > 100 µM (inactive) | > 100 µM (inactive) | > 100 µM (inactive) | > 100 µM (inactive) | > 100 µM (inactive) | > 100 µM (inactive) | > 100 µM (inactive) | > 100 µM (inactive) | > 100 µM (inactive) | > 100 µM (inactive) | > 100 µM (inactive) | > 100 µM (inactive) | > 100 µM (inactive) | > 100 µM (inactive) | > 100 µM (inactive) | > 100 µM (inactive) | > 100 µM (inactive) | > 100 µM (inactive) | > 100 µM (inactive) | > 100 µM (inactive)
COc1ccc(/N=N/c2ccc3oc(=O)c(C(=O)Nc4ccc(OC)cc4)cc3c2)cc1 | 6.15 µM (inactive) | 17.8 µM (inactive) | 22.6 µM (inactive) | 18.2 µM (inactive) | 14 µM (inactive) | 16.2 µM (inactive) | 3.71 µM (inactive) | 16.7 µM (inactive) | 20.4 µM (inactive) | 17.4 µM (inactive) | 18.6 µM (inactive) | 22.4 µM (inactive) | 9.02 µM (inactive) | 11 µM (inactive) | 20.8 µM (inactive) | 18.1 µM (inactive) | 27 µM (inactive) | 15.6 µM (inactive) | 23.5 µM (inactive) | 16.3 µM (inactive)
CN1C2CCC1CC(CC(=O)NC(c1ccc(F)cc1)c1ccc(F)cc1)C2 (stereo not given) | 81.1 µM (inactive) | > 100 µM (inactive) | 38.6 µM (inactive) | > 100 µM (inactive) | > 100 µM (inactive) | > 100 µM (inactive) | 80 µM (inactive) | 35.6 µM (inactive) | > 100 µM (inactive) | > 100 µM (inactive) | 27.5 µM (inactive) | > 100 µM (inactive) | 98.4 µM (inactive) | > 100 µM (inactive) | 21.5 µM (inactive) | 37.7 µM (inactive) | > 100 µM (inactive) | > 100 µM (inactive) | > 100 µM (inactive) | 47 µM (inactive)
CC(C(=O)O)C(C)(O)C(=O)O (stereo not given) | > 100 µM (inactive) | 61.8 µM (inactive) | > 100 µM (inactive) | > 100 µM (inactive) | > 100 µM (inactive) | > 100 µM (inactive) | > 100 µM (inactive) | > 100 µM (inactive) | > 100 µM (inactive) | > 100 µM (inactive) | > 100 µM (inactive) | > 100 µM (inactive) | > 100 µM (inactive) | > 100 µM (inactive) | > 100 µM (inactive) | > 100 µM (inactive) | > 100 µM (inactive) | > 100 µM (inactive) | > 100 µM (inactive) | > 100 µM (inactive)
